Data as given in patent US11986532B2 (Arvinas Operations, Inc., priority 2021, dated 2024).
Read-outs that look alike come from different tables or passages of the source.

Target: T1, BCL6 (Homo sapiens, UniProt P41182)
T1 construct: endogenous in cells; host or cells: T47D breast cancer epithelial cells
Experiment: Immunofluorescence protocol for high content imaging of BCL6 (degradation) in T47D cells, 3 days compound treatment
Assay type: cell-based
Details: for DC50: read-out: Mean DC50 (nM)* category; for Dmax: read-out: Mean Dmax (%)** category
How it was run: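 For degradation, compound series (3-fold, 11 points, top 0.1 or 1 μM final) were added to adherent T47D cultures for 3 days. BCL6 immunostaining used a rabbit antibody at 1:300 and an Alexa-488 secondary, with imaging at 10× magnification.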

[1] = T47D cells, 3 days compound treatment

SMILES	DC50 [1]	Dmax [1]	Dmax (T47D)	DC50
CNC(=O)COc1cc2cc(Nc3nc(N4CCN(CC5CCN(c6ccc7c(c6)CN(C6CCC(=O)NC6=O)C7=O)CC5)CC4)ncc3Cl)ccc2n(C)c1=O (stereo not shown) [Compound 67, 2-{[6-({5-chloro-2-[4-({1-[2-(2,6-dioxopiperidin-3-yl)-1-oxo-2,3-dihydro-1H-isoindol-5-yl]piperidin-4-yl}methyl)piperazin-1-yl]pyrimidin-4-yl}amino)-1-methyl-2-oxo-1,2-dihydroquinolin-3-yl]oxy}-N-methylacetamide]	< 10 nM	50 to 70%	–	–
CNC(=O)COc1cc2cc(Nc3nc(N4CCC(O[C@H]5C[C@H](N6CC[C@H](c7ccc8c(c7F)CN(C7CCC(=O)NC7=O)C8=O)[C@H](OC)C6)C5)CC4)ncc3Cl)ccc2n(C(C)C)c1=O (stereo partly drawn) [Compound 279, 2-({6-[(5-chloro-2-{4-[(1r,3r)-3-[(3S,4R)-4-[2-(2,6-dioxopiperidin-3-yl)-4-fluoro-1-oxo-2,3-dihydro-1H-isoindol-5-yl]-3-methoxypiperidin-1-yl]cyclobutoxy]piperidin-1-yl}pyrimidin-4-yl)amino]-2-oxo-1-(propan-2-yl)-1,2-dihydroquinolin-3-yl}oxy)-N-methylacetamide]	–	–	≥ 70%	< 10 nM
CNC(=O)COc1cc2cc(Nc3nc(N4CCC(O[C@H]5C[C@H](N6CC7(CCN7c7cccc8c7CN(C7CCC(=O)NC7=O)C8=O)C6)C5)CC4)ncc3Cl)ccc2n(C(C)C)c1=O (stereo partly shown) [Compound 317, 2-({6-[(5-chloro-2-{4-[(1r,3r)-3-{1-[2-(2,6-dioxopiperidin-3-yl)-1-oxo-2,3-dihydro-1H-isoindol-4-yl]-1,6-diazaspiro[3.3]heptan-6-yl}cyclobutoxy]piperidin-1-yl}pyrimidin-4-yl)amino]-2-oxo-1-(propan-2-yl)-1,2-dihydroquinolin-3-yl}oxy)-N-methylacetamide]	–	–	50 to 70%	< 10 nM
CNC(=O)COc1cc2c(F)c(Nc3nc(N4CCC(CN5CCC6(CC5)CC5(CN(c7ccc8c(c7)CN(C7CCC(=O)NC7=O)C8=O)C5)C6)CC4)ncc3Cl)ccc2n(C(C)C)c1=O (stereo not shown) [Compound 421, 2-{[6-({5-chloro-2-[4-({2-[2-(2,6-dioxopiperidin-3-yl)-1-oxo-2,3-dihydro-1H-isoindol-5-yl]-2,9-diazadispiro [3.1.56.14]dodecan-9-yl}methyl)piperidin-1-yl]pyrimidin-4-yl}amino)-5-fluoro-2-oxo-1-(propan-2-yl)-1,2-dihydroquinolin-3-yl]oxy}-N-methylacetamide]	–	–	≥ 70%	< 10 nM
CNC(=O)COc1cc2cc(Nc3nc(N4CCC(O[C@H]5C[C@H](N6CCN(c7ccc8c(c7F)CN(C7CCC(=O)NC7=O)C8=O)[C@H](C)C6)C5)CC4)ncc3Cl)ccc2n(C(C)C)c1=O (stereo partly shown) [Compound 175]	< 10 nM	≥ 70%	–	–
CNC(=O)COc1cc2c(F)c(Nc3nc(N4CCC(O[C@H]5C[C@H](N6CCC(c7ccc8c(c7C)C(=O)N(C7CCC(=O)NC7=O)C8=O)CC6)C5)CC4)ncc3Cl)ccc2n(C(C)C)c1=O (stereo partly shown) [Compound 419, 2-({6-[(5-chloro-2-{4-[(1r,3r)-3-{4-[2-(2,6-dioxopiperidin-3-yl)-4-methyl-1,3-dioxo-2,3-dihydro-1H-isoindol-5-yl]piperidin-1-yl}cyclobutoxy]piperidin-1-yl}pyrimidin-4-yl)amino]-5-fluoro-2-oxo-1-(propan-2-yl)-1,2-dihydroquinolin-3-yl}oxy)-N-methylacetamide]	–	–	≥ 70%	< 10 nM
CNC(=O)COc1cc2cc(Nc3nc(N4CCC(O[C@H]5C[C@H](N6CCN(c7ccc8c(n7)CN(C7CCC(=O)NC7=O)C8=O)[C@@H](C)C6)C5)CC4)ncc3Cl)ccc2n(C(C)C)c1=O (stereo partly shown) [Compound 192]	< 10 nM	≥ 70%	–	–
CNC(=O)COc1cc2cc(Nc3nc(N4CCC(CN5CCC6(CN(c7ccc8c(c7F)CN(C7CCC(=O)NC7=O)C8=O)C6)C(F)(F)C5)CC4)ncc3Cl)ccc2n(C(C)C)c1=O (stereo not shown) [Compound 332, 2-{[6-({5-chloro-2-[4-({2-[2-(2,6-dioxopiperidin-3-yl)-4-fluoro-1-oxo-2,3-dihydro-1H-isoindol-5-yl]-5,5-difluoro-2,7-diazaspiro[3.5]nonan-7-yl}methyl)piperidin-1-yl]pyrimidin-4-yl}amino)-2-oxo-1-(propan-2-yl)-1,2-dihydroquinolin-3-yl]oxy}-N-methylacetamide]	–	–	≥ 70%	< 10 nM
CNC(=O)COc1cc2cc(Nc3nc(N4CCC(CN5CC(N6CCN(c7ccc8c(c7)CN(C7CCC(=O)NC7=O)C8=O)CC6)C5)CC4)ncc3Cl)ccc2n(C(C)C)c1=O (stereo not shown) [Compound 242, 2-({6-[(5-chloro-2-{4-[(3-{4-[2-(2,6-dioxopiperidin-3-yl)-1-oxo-2,3-dihydro-1H-isoindol-5-yl]piperazin-1-yl}azetidin-1-yl)methyl]piperidin-1-yl}pyrimidin-4-yl)amino]-2-oxo-1-(propan-2-yl)-1,2-dihydroquinolin-3-yl}oxy)-N-methylacetamide]	–	–	≥ 70%	< 10 nM
CNC(=O)COc1cc2cc(Nc3nc(N4CCC(O[C@H]5C[C@H](N6CC7(CCN(c8ccc9c(c8F)CN(C8CCC(=O)NC8=O)C9=O)CC7)C6)C5)CC4)ncc3Cl)ccc2n(C(C)C)c1=O (stereo partly shown) [Compound 393, 2-({6-[(5-chloro-2-{4-[(1r,3r)-3-{7-[2-(2,6-dioxopiperidin-3-yl)-4-fluoro-1-oxo-2,3-dihydro-1H-isoindol-5-yl]-2,7-diazaspiro[3.5]nonan-2-yl}cyclobutoxy]piperidin-1-yl}pyrimidin-4-yl)amino]-2-oxo-1-(propan-2-yl)-1,2-dihydroquinolin-3-yl}oxy)-N-methylacetamide]	–	–	≥ 70%	< 10 nM
CNC(=O)COc1cc2cc(Nc3nc(N4CCC(O[C@H]5C[C@H](N6CCC(c7cc8c(cc7OC)C(=O)N(C7CCC(=O)NC7=O)C8)CC6)C5)CC4)ncc3Cl)ccc2n(C(C)C)c1=O (stereo partly shown) [Compound 348, 2-({6-[(5-chloro-2-{4-[(1r,3r)-3-{4-[2-(2,6-dioxopiperidin-3-yl)-6-methoxy-1-oxo-2,3-dihydro-1H-isoindol-5-yl]piperidin-1-yl}cyclobutoxy]piperidin-1-yl}pyrimidin-4-yl)amino]-2-oxo-1-(propan-2-yl)-1,2-dihydroquinolin-3-yl}oxy)-N-methylacetamide]	–	–	≥ 70%	< 10 nM
CNC(=O)COc1cc2cc(Nc3nc(N4CCC(O[C@H]5C[C@H](N6CCC(c7cc8c(cc7OC)C(=O)N(C7CCC(=O)NC7=O)C8=O)CC6)C5)CC4)ncc3Cl)ccc2n(C(C)C)c1=O (stereo partly shown) [Compound 160, 2-({6-[(5-chloro-2-{4-[(1r,3r)-3-{4-[2-(2,6-dioxopiperidin-3-yl)-6-methoxy-1,3-dioxo-2,3-dihydro-1H-isoindol-5-yl]piperidin-1-yl}cyclobutoxy]piperidin-1-yl}pyrimidin-4-yl)amino]-2-oxo-1-(propan-2-yl)-1,2-dihydroquinolin-3-yl}oxy)-N-methylacetamide]	< 10 nM	≥ 70%	–	–
CNC(=O)COc1cc2cc(Nc3nc(N4CCC(O[C@H]5C[C@H](N6CCN(c7cc(C)c8c(c7)C(=O)N(C7CCC(=O)NC7=O)C8=O)CC6)C5)CC4)ncc3Cl)ccc2n(C(C)C)c1=O (stereo partly shown) [Compound 378, 2-({6-[(5-chloro-2-{4-[(1r,3r)-3-{4-[2-(2,6-dioxopiperidin-3-yl)-7-methyl-1,3-dioxo-2,3-dihydro-1H-isoindol-5-yl]piperazin-1-yl}cyclobutoxy]piperidin-1-yl}pyrimidin-4-yl)amino]-2-oxo-1-(propan-2-yl)-1,2-dihydroquinolin-3-yl}oxy)-N-methylacetamide]	–	–	50 to 70%	10 to 50 nM
CNC(=O)COc1cc2cc(Nc3nc(N4CCC(O[C@H]5C[C@H](N6CCC(c7cnc8c(c7)CN(C7CCC(=O)NC7=O)C8=O)CC6)C5)CC4)ncc3Cl)ccc2n(C(C)C)c1=O (stereo partly shown) [Compound 216, 2-({6-[(5-chloro-2-{4-[(1r,3r)-3-{4-[6-(2,6-dioxopiperidin-3-yl)-7-oxo-5H,6H,7H-pyrrolo[3,4-b]pyridin-3-yl]piperidin-1-yl}cyclobutoxy]piperidin-1-yl}pyrimidin-4-yl)amino]-2-oxo-1-(propan-2-yl)-1,2-dihydroquinolin-3-yl}oxy)-N-methylacetamide]	–	–	50 to 70%	< 10 nM
CNC(=O)COc1cc2cc(Nc3nc(N4CCC5(CC4)CN(C(=O)C4CCN(c6cccc7c6CN(C6CCC(=O)NC6=O)C7=O)CC4)C5)ncc3Cl)ccc2n(C(C)C)c1=O (stereo not shown) [Compound 22, 2-[(6-{[5-chloro-2-(2-{1-[2-(2,6-dioxopiperidin-3-yl)-1-oxo-2,3-dihydro-1H-isoindol-4-yl]piperidine-4-carbonyl}-2,7-diazaspiro[3.5]nonan-7-yl)pyrimidin-4-yl]amino}-2-oxo-1-(propan-2-yl)-1,2-dihydroquinolin-3-yl)oxy]-N-methylacetamide]	< 10 nM	50 to 70%	–	–
CNC(=O)COc1cc2cc(Nc3nc(N4CCN(CC5CCC6(CC5)CN(c5ccc7c(c5F)CN(C5CCC(=O)NC5=O)C7=O)C6)CC4)ncc3Cl)ccc2n(C(C)C)c1=O (stereo not shown) [Compound 307, 2-{[6-({5-chloro-2-[4-({2-[2-(2,6-dioxopiperidin-3-yl)-4-fluoro-1-oxo-2,3-dihydro-1H-isoindol-5-yl]-2-azaspiro[3.5]nonan-7-yl}methyl)piperazin-1-yl]pyrimidin-4-yl}amino)-2-oxo-1-(propan-2-yl)-1,2-dihydroquinolin-3-yl]oxy}-N-methylacetamide]	–	–	50 to 70%	< 10 nM
CNC(=O)COc1cc2c(F)c(Nc3nc(N4CCC(O[C@H]5C[C@H](N6CCC(c7ccc8c(c7F)CN([C@H]7CCC(=O)NC7=O)C8=O)CC6)C5)CC4)ncc3Cl)ccc2n(C(C)C)c1=O [Compound 380, 2-({6-[(5-chloro-2-{4-[(1r,3r)-3-(4-{2-[(3S)-2,6-dioxopiperidin-3-yl]-4-fluoro-1-oxo-2,3-dihydro-1H-isoindol-5-yl}piperidin-1-yl)cyclobutoxy]piperidin-1-yl}pyrimidin-4-yl)amino]-5-fluoro-2-oxo-1-(propan-2-yl)-1,2-dihydroquinolin-3-yl}oxy)-N-methylacetamide]	–	–	50 to 70%	< 10 nM
